{"source": "patent US20250205264A1", "about": "“METHODS OF USING AVERMECTIN COMPOSITIONS FOR THE TREATMENT OF SPASTICITY AND DOSING REGIMENS” (priority 2022, published 2025)", "key": {"[1]": {"assay": "Excipient compatibility study at 40° C./75% RH (HPLC Assay/Related Substances)", "assay_type": "physicochemical", "settings": "for Chromatographic purity by HPLC (% area) / Total Impurities % (% adjusted area): 40° C./75% RH; for Total Impurities % (% adjusted area): excluding API impurities", "procedure": "An excipient compatibility study was initiated with selected excipients ranging from oils to surfactants based on equilibrium solubility results (Table 2). […] After solutions were prepared using a hand-held homogenizer (Model IKAT10 Ultra-Turrax), each excipient sample was aliquoted in amber vials, approximately 10% water was added in each excipient aliquot, and bench scale gel stripe OET-004037 was also made and added in a separate set of aliquot samples at approximately 1:1 w/w.\nAll samples were stored at 40° C./75% relative humidity (RH) condition (Model: Lunaire environmental chamber) and tested by developmental reversed phase HPLC method for Assay/Related Substances at T=0, 2 weeks, and 1 month."}, "[2]": {"assay": "Ivermectin solubility determination in excipients", "protocol": "The solubility assessments were performed by continually adding a known amount of the API into each individual excipient and letting the excipient reach solubility equilibrium via API saturation (visible solid observed). The experiments were conducted at ambient conditions (25° C.) and were left to mix on a stir plate at 500 RPM for at least 72 hours."}, "[3]": {"settings": "in Oleic acid, Control, T = 2 weeks"}, "[4]": {"settings": "in Oleic acid, Gel Stripe (1:1 w/w), T = 2 weeks"}, "[5]": {"settings": "in PEG 400, 10% water, T = 2 weeks"}, "[6]": {"settings": "in PEG 400, Control, T = 2 weeks"}, "[7]": {"settings": "in PEG 400, Gel Stripe (1:1 w/w), T = 2 weeks"}, "[8]": {"settings": "in Tween 80, 10% water, T = 1 months"}, "[9]": {"settings": "in Tween 80, 10% water, T = 2 weeks"}, "[10]": {"settings": "in Tween 80, Control, T = 1 months"}, "[11]": {"settings": "in Tween 80, Control, T = 2 weeks"}, "[12]": {"settings": "in Tween 80, Gel Stripe (1:1 w/w), T = 1 months"}, "[13]": {"settings": "in Tween 80, Gel Stripe (1:1 w/w), T = 2 weeks"}, "[14]": {"settings": "in Vitamin E TPGS, 10% water, T = 1 months"}, "[15]": {"settings": "in Vitamin E TPGS, 10% water, T = 2 weeks"}, "[16]": {"settings": "in Vitamin E TPGS, Control, T = 0"}, "[17]": {"settings": "in Vitamin E TPGS, Control, T = 1 months"}, "[18]": {"settings": "in Vitamin E TPGS, Control, T = 2 weeks"}, "[19]": {"settings": "in Vitamin E TPGS, Gel Stripe (1:1 w/w), T = 1 months"}, "[20]": {"settings": "in Vitamin E TPGS, Gel Stripe (1:1 w/w), T = 2 weeks"}}, "data": [{"substance": "ivermectin", "values": [{"measurement": "Chromatographic purity by HPLC (% area)", "setting": "[1]; in Oleic acid, Control, T = 0", "value": 99.60, "unit": "% area"}, {"measurement": "Total Impurities % (% adjusted area)", "setting": "[1]; in Oleic acid, Control, T = 0", "value": "<LOQ"}, {"measurement": "Chromatographic purity by HPLC (% area)", "setting": "[1]; [3]", "value": 83.55, "unit": "% area"}, {"measurement": "Total Impurities % (% adjusted area)", "setting": "[1]; [3]", "value": 17.27, "unit": "% adjusted area"}, {"measurement": "Chromatographic purity by HPLC (% area)", "setting": "[1]; [4]", "value": 83.73, "unit": "% area"}, {"measurement": "Total Impurities % (% adjusted area)", "setting": "[1]; [4]", "value": 11.82, "unit": "% adjusted area"}, {"measurement": "Chromatographic purity by HPLC (% area)", "setting": "[1]; [5]", "value": 94.35, "unit": "% area"}, {"measurement": "Total Impurities % (% adjusted area)", "setting": "[1]; [5]", "value": 3.15, "unit": "% adjusted area"}, {"measurement": "Chromatographic purity by HPLC (% area)", "setting": "[1]; in PEG 400, Control, T = 0", "value": 97.58, "unit": "% area"}, {"measurement": "Total Impurities % (% adjusted area)", "setting": "[1]; in PEG 400, Control, T = 0", "value": 0.10, "unit": "% adjusted area"}, {"measurement": "Chromatographic purity by HPLC (% area)", "setting": "[1]; [6]", "value": 89.36, "unit": "% area"}, {"measurement": "Total Impurities % (% adjusted area)", "setting": "[1]; [6]", "value": 8.54, "unit": "% adjusted area"}, {"measurement": "Chromatographic purity by HPLC (% area)", "setting": "[1]; [7]", "value": 96.92, "unit": "% area"}, {"measurement": "Total Impurities % (% adjusted area)", "setting": "[1]; [7]", "value": 0.50, "unit": "% adjusted area"}, {"measurement": "Chromatographic purity by HPLC (% area)", "setting": "[1]; [8]", "value": 91.18, "unit": "% area"}, {"measurement": "Total Impurities % (% adjusted area)", "setting": "[1]; [8]", "value": 6.94, "unit": "% adjusted area"}, {"measurement": "Chromatographic purity by HPLC (% area)", "setting": "[1]; [9]", "value": 93.02, "unit": "% area"}, {"measurement": "Total Impurities % (% adjusted area)", "setting": "[1]; [9]", "value": 3.53, "unit": "% adjusted area"}, {"measurement": "Chromatographic purity by HPLC (% area)", "setting": "[1]; in Tween 80, Control, T = 0", "value": 97.53, "unit": "% area"}, {"measurement": "Total Impurities % (% adjusted area)", "setting": "[1]; in Tween 80, Control, T = 0", "value": 0.16, "unit": "% adjusted area"}, {"measurement": "Chromatographic purity by HPLC (% area)", "setting": "[1]; [10]", "value": 88.45, "unit": "% area"}, {"measurement": "Total Impurities % (% adjusted area)", "setting": "[1]; [10]", "value": 10.55, "unit": "% adjusted area"}, {"measurement": "Chromatographic purity by HPLC (% area)", "setting": "[1]; [11]", "value": 91.87, "unit": "% area"}, {"measurement": "Total Impurities % (% adjusted area)", "setting": "[1]; [11]", "value": 4.86, "unit": "% adjusted area"}, {"measurement": "Chromatographic purity by HPLC (% area)", "setting": "[1]; [12]", "value": 93.51, "unit": "% area"}, {"measurement": "Total Impurities % (% adjusted area)", "setting": "[1]; [12]", "value": 4.22, "unit": "% adjusted area"}, {"measurement": "Chromatographic purity by HPLC (% area)", "setting": "[1]; [13]", "value": 93.97, "unit": "% area"}, {"measurement": "Total Impurities % (% adjusted area)", "setting": "[1]; [13]", "value": 2.43, "unit": "% adjusted area"}, {"measurement": "Chromatographic purity by HPLC (% area)", "setting": "[1]; [14]", "value": 97.46, "unit": "% area"}, {"measurement": "Total Impurities % (% adjusted area)", "setting": "[1]; [14]", "value": "<LOQ"}, {"measurement": "Chromatographic purity by HPLC (% area)", "setting": "[1]; [15]", "value": 96.99, "unit": "% area"}, {"measurement": "Total Impurities % (% adjusted area)", "setting": "[1]; [15]", "value": 0.42, "unit": "% adjusted area"}, {"measurement": "Chromatographic purity by HPLC (% area)", "setting": "[1]; [16]", "value": 97.74, "unit": "% area"}, {"measurement": "Total Impurities % (% adjusted area)", "setting": "[1]; [16]", "value": "<LOQ"}, {"measurement": "Chromatographic purity by HPLC (% area)", "setting": "[1]; [17]", "value": 97.37, "unit": "% area"}, {"measurement": "Total Impurities % (% adjusted area)", "setting": "[1]; [17]", "value": 0.11, "unit": "% adjusted area"}, {"measurement": "Chromatographic purity by HPLC (% area)", "setting": "[1]; [18]", "value": 97.43, "unit": "% area"}, {"measurement": "Total Impurities % (% adjusted area)", "setting": "[1]; [18]", "value": "<LOQ"}, {"measurement": "Chromatographic purity by HPLC (% area)", "setting": "[1]; [19]", "value": 97.74, "unit": "% area"}, {"measurement": "Total Impurities % (% adjusted area)", "setting": "[1]; [19]", "value": "<LOQ"}, {"measurement": "Chromatographic purity by HPLC (% area)", "setting": "[1]; [20]", "value": 97.50, "unit": "% area"}, {"measurement": "Total Impurities % (% adjusted area)", "setting": "[1]; [20]", "value": "<LOQ"}, {"measurement": "chemical compatibility with the API", "setting": "[1]; oily vehicles Maisine CC, fractionated coconut oil, and oleic acid", "value": "good chemical compatibility"}, {"measurement": "Solubility", "setting": "[2]; in Capryol 90, 25° C.", "value": 150.92, "unit": "mg/g"}, {"measurement": "Solubility", "setting": "[2]; in Fractionated Coconut oil, 25° C.", "value": 16.55, "unit": "mg/g"}, {"measurement": "Solubility", "setting": "[2]; in Glycerin, 25° C.", "value": "<0.1", "unit": "mg/g"}, {"measurement": "Solubility", "setting": "[2]; in Kolliphor EL, 25° C.", "value": 95.85, "unit": "mg/g"}, {"measurement": "Solubility", "setting": "[2]; in Labrafil M 2125 CS, 25° C.", "value": 35.32, "unit": "mg/g"}, {"measurement": "Solubility", "setting": "[2]; in Labrasol ALF, 25° C.", "value": 126.36, "unit": "mg/g"}, {"measurement": "Solubility", "setting": "[2]; in LauroglycolTM FCC, 25° C.", "value": 71.96, "unit": "mg/g"}, {"measurement": "Solubility", "setting": "[2]; in Maisine CC, 25° C.", "value": 60.17, "unit": "mg/g"}, {"measurement": "Solubility", "setting": "[2]; in Masester E8120, 25° C.", "value": 164.06, "unit": "mg/g"}, {"measurement": "Solubility", "setting": "[2]; in Medium Chain Triglyceride, 25° C.", "value": 16.49, "unit": "mg/g"}, {"measurement": "Solubility", "setting": "[2]; in Oleic acid, 25° C.", "value": 48.58, "unit": "mg/g"}, {"measurement": "Solubility", "setting": "[2]; in Olive oil, 25° C.", "value": 4.71, "unit": "mg/g"}, {"measurement": "Solubility", "setting": "[2]; in PEG 400, 25° C.", "value": 112.92, "unit": "mg/g"}, {"measurement": "Solubility", "setting": "[2]; in Propylene glycol, 25° C.", "value": 25.61, "unit": "mg/g"}, {"measurement": "Solubility", "setting": "[2]; in Soybean oil, 25° C.", "value": 6.72, "unit": "mg/g"}, {"measurement": "Solubility", "setting": "[2]; in Span 20, 25° C.", "value": 97.66, "unit": "mg/g"}, {"measurement": "Solubility", "setting": "[2]; in Span 80, 25° C.", "value": 54.04, "unit": "mg/g"}, {"measurement": "Solubility", "setting": "[2]; in Triacetin, 25° C.", "value": 58.75, "unit": "mg/g"}, {"measurement": "Solubility", "setting": "[2]; in Tween 80, 25° C.", "value": 88.26, "unit": "mg/g"}, {"measurement": "Solubility", "setting": "[2]; in Vitamin E TPGS, table title 25° C., text b171: conducted at 40° C.", "value": 82.98, "unit": "mg/g"}]}]}
